Paper PMC9981206 (Cancer Research Communications, 2022)

Experiments:
Type in all cases: cell-based
[1] = system: COLO 320DM colon carcinoma cells; test: MTS colorimetric cell growth assay, COLO 320DM; conditions: Homo sapiens, 120 h, read-out: COLO320DM GI50
Excerpt: (§1) The cell cultures were kept below 20 passages (∼10 weeks) and routinely monitored (upon thawing and monthly) for Mycoplasma infections with MycoAlert Mycoplasma Detection Kit (Lonza). All cell lines were authenticated by short tandem repeat profiling to confirm their identity (Eurofins). TNKS1/2 and PARP1 biochemical assays ([27, 32]), luciferase-based WNT/β-catenin signaling pathway reporter assay ([22, 27, 32]), anti-proliferative assays, and NCI-60 tumor cell line panel screen ([7]), immunoblot analyses ([7, 32, 39]), RNA isolation, and real-time qRT-PCR ([7, 27, 39, 40]) were performed as previously described.
(§2) B, IC50 values for inhibition of TNKS1, TNKS2, and PARP1 (biochemical assays) and luciferase-based WNT/β-catenin signaling reporter assay in HEK293 cells (WNT reporter). […] Mean ± SD values from a minimum of three independent experiments are shown. For B and C, numbers in superscript indicate data from reference 22, 27, 31, and 32. […] C, MTS colorimetric cell growth assay for various concentrations of tankyrase inhibitors in treated COLO 320DM and RKO colon cancer cells. […] Data from one representative experiment of more than three repeated assays, each with six replicates, are shown.

WNT/β-catenin signaling = test: luciferase-based WNT/β-catenin signaling reporter assay in HEK293 cells; conditions: Homo sapiens, HEK293, read-out: WNT reporter IC50
Protocol: as §1, with “The cell lines where obtained from ATCC or the Japanese Collection of Research Bioresources (JCRB) in 2014 and culturing was performed as described previously ([7]). The” for “The”

[2] = system: RKO colon carcinoma cells; test: MTS colorimetric cell growth assay, RKO; conditions: Homo sapiens, 120 h, read-out: RKO GI50
Excerpt: as §1, §2

| SMILES | GI50 [1] [µM] | IC50 (WNT/β-catenin signaling) [µM] | GI50 [2] [µM] |
| --- | --- | --- | --- |
| Oc1nc(-c2ccc(C(F)(F)F)cc2)nc2c1CSCC2 [XAV939] | > 10 | 0.22 ± 0.021 | 9.5 |
| Cc1cc(N2C[C@@H](C)N[C@@H](C)C2)ncc1-c1ccc(-c2nc3c(ccn3C)c(=O)[nH]2)cc1 [AZ6102] | 0.05 | 0.016 ± 0.0045 | 6.7 |
